Measurements as given in patent US20260167656A1, “PHOSPHORAMIDATE COMPOUNDS AND USES THEREOF” (ALLORION THERAPEUTICS INC, priority 2022, published 2026).

Tests used:
[1] = tested on: non-small cell lung cancer cell line H460; assay: In vitro human cancer cell line cytotoxicity (proliferation) assay in H460, CellTiter-Glo, 72 hours; format: cell-based; details: H460 cells, DMSO condition (no AKR1C3 inhibitor), read-out: CTG H460: Avg IC50 (nM) [Assay Condition: DMSO]
In short: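 H460 cells were seeded at 3×10^3 per well and grown 24 h at 37 °C, 5% CO2 before compound addition from 10 mM DMSO stocks. After 72 h further incubation, viability was measured by CellTiter-Glo, and IC50 values in nM were derived from the proliferation data.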

[2] = tested on: non-small cell lung cancer cell line H460; assay: H460 proliferation assay in the presence of 3 uM ASP9521 (AKR1C3 specific inhibitor); format: cell-based, human; details: H460 cells, CellTiter-Glo, 72 hours, in the presence of 3 uM ASP9521 added 4 hours prior to compounds; read-out: CTG H460: Avg IC50 (nM) [Assay Condition: ASP9521]
In short: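 H460 cells pre-incubated 24 h, then exposed to compounds for 72 h at 37 °C, 5% CO2. Viability read by CellTiter-Glo. ASP9521 (3 uM, AKR1C3 inhibitor) added 4 h before compounds.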

CN(C)C(=O)c1cccc(Oc2c([N+](=O)[O-])ccc3c2OCCC3OP(=O)(N2CC2)N2CC2)c1 (centres unmarked) [Example 128]
IC50 ([1]; Homo sapiens, NCI-H460, 72 h): < 10 nM | IC50 [2]: 491 nM

CN(C)C(=O)c1cccc(Oc2c([N+](=O)[O-])ccc3c2OCCC3OP(=O)(N2CC2)N2CC2)c1 (centres unmarked) [Example 129]
IC50 [1]: 10 to 50 nM | IC50 [2]: 982 nM

O=[N+]([O-])c1ccc2c(c1Oc1ccc(-c3ccc(F)cc3)cc1)OCCC2OP(=O)(N1CC1)N1CC1 (centres unmarked) [Example 132]
IC50 ([1]; Homo sapiens, NCI-H460, 72 h): < 10 nM | IC50 [2]: 1250 nM

O=[N+]([O-])c1ccc2c(c1Oc1ccc(-c3ccc(F)cc3)cc1)OCCC2OP(=O)(N1CC1)N1CC1 (centres unmarked) [Example 133]
IC50 [1]: 10 to 50 nM | IC50 [2]: 1620 nM

O=[N+]([O-])c1ccc2c(c1Oc1ccc(-c3ccccc3)cc1)OCCC2OP(=O)(N1CC1)N1CC1 (centres unmarked) [Example 134]
IC50 ([1]; Homo sapiens, NCI-H460, 72 h): 10 to 50 nM | IC50 [2]: 1510 nM

O=[N+]([O-])c1ccc2c(c1Oc1ccc(-c3ccccc3)cc1)OCCC2OP(=O)(N1CC1)N1CC1 (centres unmarked) [Example 135]
IC50 [1]: < 10 nM | IC50 [2]: 482 nM

CNC(=O)c1ccc(Oc2c([N+](=O)[O-])ccc3c2OCCC3OP(=O)(N2CC2)N2CC2)cc1 (centres unmarked) [Example 136]
IC50 [1]: 50 to 100 nM | IC50 [2]: 913 nM

CNC(=O)c1ccc(Oc2c([N+](=O)[O-])ccc3c2OCCC3OP(=O)(N2CC2)N2CC2)cc1 (centres unmarked) [Example 137]
IC50 [1]: < 10 nM | IC50 [2]: 538 nM

O=[N+]([O-])c1cc2c(cc1Oc1ccc(-c3ccc(F)cn3)c(F)c1)C(OP(=O)(N1CC1)N1CC1)CC2 (centres unmarked) [Example 142]
IC50 ([1]; Homo sapiens, NCI-H460, 72 h): < 10 nM | IC50 [2]: 4130 nM

O=[N+]([O-])c1cc2c(cc1Oc1ccc(-c3ccc(F)cn3)c(F)c1)C(OP(=O)(N1CC1)N1CC1)CC2 (centres unmarked) [Example 143]
IC50 [1]: < 10 nM | IC50 [2]: 1720 nM

O=[N+]([O-])c1cc2c(cc1Oc1ccc(-c3ccc(F)cc3)cc1)C(OP(=O)(N1CC1)N1CC1)CC2 (centres unmarked) [Example 144]
IC50 ([1]; Homo sapiens, NCI-H460, 72 h): < 10 nM | IC50 [2]: 347 nM

O=[N+]([O-])c1cc2c(cc1Oc1ccc(-c3ccc(F)cc3)cc1)C(OP(=O)(N1CC1)N1CC1)CC2 (centres unmarked) [Example 145]
IC50 [1]: < 10 nM | IC50 [2]: 1120 nM

CN(C)C(=O)c1cccc(Oc2cc3c(cc2[N+](=O)[O-])CCC3OP(=O)(N2CC2)N2CC2)c1 (centres unmarked) [Example 146]
IC50 ([1]; Homo sapiens, NCI-H460, 72 h): < 10 nM | IC50 [2]: 453 nM

CN(C)C(=O)c1cccc(Oc2cc3c(cc2[N+](=O)[O-])CCC3OP(=O)(N2CC2)N2CC2)c1 (centres unmarked) [Example 147]
IC50 [1]: < 10 nM | IC50 [2]: 311 nM

O=[N+]([O-])c1cc2c(cc1Oc1ccc(C3CC3)cc1)C(OP(=O)(N1CC1)N1CC1)CC2 (centres unmarked) [Example 148]
IC50 ([1]; Homo sapiens, NCI-H460, 72 h): < 10 nM | IC50 [2]: 955 nM

O=[N+]([O-])c1cc2c(cc1Oc1ccc(C3CC3)cc1)C(OP(=O)(N1CC1)N1CC1)CC2 (centres unmarked) [Example 149]
IC50 [1]: < 10 nM | IC50 [2]: 372 nM

CN1Cc2cc(Oc3cc4c(cc3[N+](=O)[O-])CCC4OP(=O)(N3CC3)N3CC3)ccc2C1=O (centres unmarked) [Example 154]
IC50 ([1]; Homo sapiens, NCI-H460, 72 h): < 10 nM | IC50 [2]: 309 nM

CN1Cc2cc(Oc3cc4c(cc3[N+](=O)[O-])CCC4OP(=O)(N3CC3)N3CC3)ccc2C1=O (centres unmarked) [Example 155]
IC50 [1]: < 10 nM | IC50 [2]: 128 nM

Cn1ccc2ccc(Oc3cc4c(cc3[N+](=O)[O-])CCC4OP(=O)(N3CC3)N3CC3)cc2c1=O (centres unmarked) [Example 156]
IC50 ([1]; Homo sapiens, NCI-H460, 72 h): 10 to 50 nM | IC50 [2]: 895 nM

Cn1ccc2ccc(Oc3cc4c(cc3[N+](=O)[O-])CCC4OP(=O)(N3CC3)N3CC3)cc2c1=O (centres unmarked) [Example 157]
IC50 [1]: 10 to 50 nM | IC50 [2]: 1240 nM

CN1CCOc2ccc(Oc3cc4c(cc3[N+](=O)[O-])CCC4OP(=O)(N3CC3)N3CC3)cc2C1=O (centres unmarked) [Example 158]
IC50 ([1]; Homo sapiens, NCI-H460, 72 h): 50 to 100 nM | IC50 [2]: 4680 nM

CN1CCOc2ccc(Oc3cc4c(cc3[N+](=O)[O-])CCC4OP(=O)(N3CC3)N3CC3)cc2C1=O (centres unmarked) [Example 159]
IC50 [1]: ≥ 100 nM | IC50 [2]: > 10000 nM

O=C(c1ccc(Oc2cc3c(cc2[N+](=O)[O-])CCC3OP(=O)(N2CC2)N2CC2)cc1)N1CCOCC1 (centres unmarked) [Example 160]
IC50 ([1]; Homo sapiens, NCI-H460, 72 h): < 10 nM | IC50 [2]: 270 nM

O=C(c1ccc(Oc2cc3c(cc2[N+](=O)[O-])CCC3OP(=O)(N2CC2)N2CC2)cc1)N1CCOCC1 (centres unmarked) [Example 161]
IC50 [1]: < 10 nM | IC50 [2]: 339 nM

O=C1c2cc(Oc3cc4c(cc3[N+](=O)[O-])CCC4OP(=O)(N3CC3)N3CC3)ccc2CN1C1COC1 (centres unmarked) [Example 162]
IC50 ([1]; Homo sapiens, NCI-H460, 72 h): < 10 nM | IC50 [2]: 969 nM

O=C1c2cc(Oc3cc4c(cc3[N+](=O)[O-])CCC4OP(=O)(N3CC3)N3CC3)ccc2CN1C1COC1 (centres unmarked) [Example 163]
IC50 [1]: < 10 nM | IC50 [2]: 1340 nM

O=C1OCCN1c1ccc(Oc2cc3c(cc2[N+](=O)[O-])CCC3OP(=O)(N2CC2)N2CC2)cc1 (centres unmarked) [Example 164]
IC50 ([1]; Homo sapiens, NCI-H460, 72 h): < 10 nM | IC50 [2]: 237 nM

O=C1OCCN1c1ccc(Oc2cc3c(cc2[N+](=O)[O-])CCC3OP(=O)(N2CC2)N2CC2)cc1 (centres unmarked) [Example 165]
IC50 [1]: < 10 nM | IC50 [2]: 89.7 nM

CN1CCc2ccc(Oc3cc4c(cc3[N+](=O)[O-])CCC4OP(=O)(N3CC3)N3CC3)cc2C1=O (centres unmarked) [Example 166]
IC50 ([1]; Homo sapiens, NCI-H460, 72 h): 10 to 50 nM | IC50 [2]: 976 nM

CN1CCc2ccc(Oc3cc4c(cc3[N+](=O)[O-])CCC4OP(=O)(N3CC3)N3CC3)cc2C1=O (centres unmarked) [Example 167]
IC50 [1]: 10 to 50 nM | IC50 [2]: 3150 nM

Cn1c(=O)oc2cc(Oc3cc4c(cc3[N+](=O)[O-])CCC4OP(=O)(N3CC3)N3CC3)ccc21 (centres unmarked) [Example 174]
IC50 ([1]; Homo sapiens, NCI-H460, 72 h): < 10 nM | IC50 [2]: 244 nM

Cn1cc(-c2ccc(Oc3cc4c(cc3[N+](=O)[O-])CCC4OP(=O)(N3CC3)N3CC3)cc2)ccc1=O (centres unmarked) [Example 178]
IC50 ([1]; Homo sapiens, NCI-H460, 72 h): ≥ 100 nM | IC50 [2]: 1630 nM

Cn1cc(-c2ccc(Oc3cc4c(cc3[N+](=O)[O-])CCC4OP(=O)(N3CC3)N3CC3)cc2)ccc1=O (centres unmarked) [Example 179]
IC50 [1]: ≥ 100 nM | IC50 [2]: 1100 nM

Cn1cc(-c2ccc(Oc3cc4c(cc3[N+](=O)[O-])CCC4OP(=O)(N3CC3)N3CC3)cc2)cn1 (centres unmarked) [Example 180]
IC50 ([1]; Homo sapiens, NCI-H460, 72 h): < 10 nM | IC50 [2]: 1950 nM

Cn1cc(-c2ccc(Oc3cc4c(cc3[N+](=O)[O-])CCC4OP(=O)(N3CC3)N3CC3)cc2)cn1 (centres unmarked) [Example 181]
IC50 [1]: < 10 nM | IC50 [2]: 942 nM

O=[N+]([O-])c1cc2c(cc1Oc1ccc(-c3ccc(Cl)cc3)cc1)C(OP(=O)(N1CC1)N1CC1)CC2 (centres unmarked) [Example 182]
IC50 [1]: ≥ 100 nM | IC50 [2]: > 10000 nM

O=[N+]([O-])c1cc2c(cc1Oc1ccc(-c3ccc(Cl)cc3)cc1)C(OP(=O)(N1CC1)N1CC1)CC2 (centres unmarked) [Example 183]
IC50 [1]: 10 to 50 nM | IC50 [2]: 1840 nM

COc1ccc(-c2ccc(Oc3cc4c(cc3[N+](=O)[O-])CCC4OP(=O)(N3CC3)N3CC3)cc2)cc1 (centres unmarked) [Example 184]
IC50 ([1]; Homo sapiens, NCI-H460, 72 h): 10 to 50 nM | IC50 [2]: 2640 nM

O=[N+]([O-])c1cc2c(cc1Oc1ccc(-c3cccnc3)cc1)C(OP(=O)(N1CC1)N1CC1)CC2 (centres unmarked) [Example 187]
IC50 ([1]; Homo sapiens, NCI-H460, 72 h): 10 to 50 nM | IC50 [2]: > 10000 nM

O=C(NC1CCC1)c1ccc(Oc2cc3c(cc2[N+](=O)[O-])CCC3OP(=O)(N2CC2)N2CC2)cc1 (centres unmarked) [Example 190]
IC50 ([1]; Homo sapiens, NCI-H460, 72 h): < 10 nM | IC50 [2]: 984 nM

O=C(NC1CCC1)c1ccc(Oc2cc3c(cc2[N+](=O)[O-])CCC3OP(=O)(N2CC2)N2CC2)cc1 (centres unmarked) [Example 191]
IC50 [1]: < 10 nM | IC50 [2]: 661 nM

O=[N+]([O-])c1cc2c(cc1Oc1ccc(-c3ccccc3)nc1)C(OP(=O)(N1CC1)N1CC1)CC2 (centres unmarked) [Example 192]
IC50 ([1]; Homo sapiens, NCI-H460, 72 h): < 10 nM | IC50 [2]: 1090 nM

O=[N+]([O-])c1cc2c(cc1Oc1ccc(-c3ccccc3)nc1)C(OP(=O)(N1CC1)N1CC1)CC2 (centres unmarked) [Example 193]
IC50 [1]: < 10 nM | IC50 [2]: 880 nM
